Laboratory results as given in patent US10751339B2, “Substituted aminopyrimidine compounds and methods of use” (SUNSHINE LAKE PHARMA CO., LTD., priority 2018, dated 2020).

Key:
[1] = system: mouse model of rheumatoid arthritis; conditions: in vivo; cited from earlier work
[2] = system: model of systemic lupus erythematosis; conditions: in vivo; cited from earlier work
[3] = system: indolent B cell malignancies; conditions: Phase I, subset of patients with indolent B cell malignancies; cited from earlier work
[4] = target: PI3K (p120γ) (h) (Homo sapiens (Human), UniProt P48736); assay: PI3K (p120γ) (h) non-radioactive HTRF kinase assay; assay type: biochemical
Experimental: (§1) PI3K (p120γ) (h) is incubated in assay buffer containing 10 μM phosphatidylinositol-4, 5-bisphosphate and MgATP (concentration as required). The reaction is initiated by the addition of the MgATP mix. After incubation for 30 minutes at room temperature, the reaction is stopped by the addition of stop solution containing EDTA and biotinylated phosphatidylinositol-3,4,5-trisphosphate. Finally, detection buffer is added, which contains europium-labelled anti-GST monoclonal antibody, GST-tagged GRP1 PH domain and streptavidin-allophycocyanin. The plate is then read in timeresolved fluorescence mode and the homogenous time-resolved fluorescence (HTRF) signal is determined according to the formula HTRF=10000×(Em665 nm/Em620 nm).
(§2) The kinase assays described herein were performed at Millipore UK Ltd, Dundee Technology Park, Dundee DD2 1SW, UK.

[5] = Compound stability in human liver microsomes; assay type: in vitro ADME; conditions: pH 7.4; for CLint scaled at 5 μM: liver microsomes, in vivo CLint extrapolated from human liver microsome incubation; for half-life at 5 μM: human liver microsomes 0.5 mg protein/mL, compound 5 μM, NADPH, 37° C., read-out: Human T1/2
Experimental: (§3) Human or rat liver microsomes incubations were conducted in duplicate in polypropylene tubes. The typical incubation mixtures consisted of human or rat liver microsomes (0.5 mg protein/mL), compounds of interest (5 μM) and NADPH (1.0 mM) in a total volume of 200 μL potassium phosphate buffer (PBS, 100 mM, pH 7.4). Compounds were dissolved in DMSO and diluted with PBS such that the final concentration of DMSO was 0.05%. The enzymatic reactions were commenced with the addition of protein after a 3-min preincubation and incubated in a water bath open to the air at 37° C. Reactions were terminated at various time points (0, 5, 10, 15, 30, 60 min) by adding equal volume of ice-cold acetonitrile. The samples were stored at −80° C. until LC/MS/MS assays.
(§4) The concentrations of compounds in the incubation mixtures of human or rat liver microsomes were determined by a LC/MS/MS method. The ranges of the linearity in the concentration range were determined for each tested compounds.
(§5) A parallel incubation was performed using denatured microsomes as the negative control, and reactions were terminated at various time points (0, 15, 60 min) after incubation at 37° C.
(§6) Dextromethorphan (70 μM) was selected as the positive control, and reactions were terminated at various time points (0, 5, 10, 15, 30, 60 min) after incubation at 37° C. Both positive and negative control samples were included in each assay to ensure the integrity of the microsomal incubation system.
(§7) The concentrations of compounds in human or rat liver microsome incubations were plotted as a percentage of the relevant zero time point control for each reaction.

[6] = target: PI3K (p110β/p85α) (h) (Homo sapiens (Human), UniProt P42338); assay: PI3K (p110β/p85α) (h) non-radioactive HTRF kinase assay; assay type: biochemical
Experimental: as §1, with “(p110β/p85α)” for “(p120γ)”, “phosphatidylinositol-4,5-bisphosphate” for “phosphatidylinositol-4, 5-bisphosphate”
as §2

[7] = target: PI3K (p110α/p85α) (h) (Homo sapiens (Human), UniProt P42336); assay: PI3K (p110α/p85α) (h) non-radioactive HTRF kinase assay; assay type: biochemical
Experimental: as §1, with “(p110α/p85α)” for “(p120γ)”, “phosphatidylinositol 4,5-bisphosphate” for “phosphatidylinositol-4, 5-bisphosphate”, “ATP solution.” for “MgATP mix.”, “streptavidin allophycocyanin.” for “streptavidin-allophycocyanin.”
as §2

[8] = Compound stability in rat liver microsomes; assay type: in vitro ADME; conditions: pH 7.4; for CLint scaled at 5 μM: liver microsomes, in vivo CLint extrapolated from rat liver microsome incubation; for half-life at 5 μM: rat liver microsomes 0.5 mg protein/mL, compound 5 μM, NADPH, 37° C., read-out: Rat T1/2
Experimental: as §3, §4, §5, §6, §7

[9] = target: PI3K (p110δ/p85α) (h) (Homo sapiens (Human), UniProt O00329); assay: PI3K (p110δ/p85α) (h) non-radioactive HTRF kinase assay; assay type: biochemical
Experimental: as §1, with “(p110δ/p85α)” for “(p120γ)”
as §2

[10] = system: PI3K-α (SKOV3); assay: p-AKT HTRF assay, PI3K-α in SKOV3 cells; assay type: cell-based; conditions: Homo sapiens, SK-OV-3
Experimental: (§8) Cells were incubated at 37° C. in a 5% CO2 atmosphere overnight. […] Medium was then aspirated and 50 μL/well of lysis buffer was added. Plates were shaked for 45 minutes at room temperature and then 16 ul/well of lysate was transferred to 384-well plate. 4 ul/well of premixed antibody was added to the wells. The plate was centrifuged at 1000 rpm at RT for 1 minute and then incubated for 4 hours at 22° C., and Phospho-AKT (ser473) Kit was used for detection.

[11] = system: PI3K-β (786-O); assay: p-AKT HTRF assay, PI3K-β in 786-O cells; assay type: cell-based; conditions: Homo sapiens, 786-0
Experimental: as §8

[12] = system: PI3K-δ (RAJI); assay: p-AKT HTRF assay, PI3K-δ in RAJI cells stimulated with anti-IgM; assay type: cell-based; conditions: anti-human IgM stimulation
Experimental: as §8

[13] = system: PI3K-γ (RAW264.7); assay: p-AKT HTRF assay, PI3K-γ in RAW 264.7 cells stimulated with C5a; assay type: cell-based, murine; conditions: Mus musculus; RAW264.7 cells, C5a stimulation
Experimental: as §8

[14] = target: hERG channels (Homo sapiens (Human), UniProt Q12809); assay: hERG assay, automated QPatch procedure; assay type: cell-based
Description: Only stable cells with recording parameters above threshold were allowed to enter the drug application procedure.

Chain of PI3K (p110β/p85α) (h) (P42338 whole entry): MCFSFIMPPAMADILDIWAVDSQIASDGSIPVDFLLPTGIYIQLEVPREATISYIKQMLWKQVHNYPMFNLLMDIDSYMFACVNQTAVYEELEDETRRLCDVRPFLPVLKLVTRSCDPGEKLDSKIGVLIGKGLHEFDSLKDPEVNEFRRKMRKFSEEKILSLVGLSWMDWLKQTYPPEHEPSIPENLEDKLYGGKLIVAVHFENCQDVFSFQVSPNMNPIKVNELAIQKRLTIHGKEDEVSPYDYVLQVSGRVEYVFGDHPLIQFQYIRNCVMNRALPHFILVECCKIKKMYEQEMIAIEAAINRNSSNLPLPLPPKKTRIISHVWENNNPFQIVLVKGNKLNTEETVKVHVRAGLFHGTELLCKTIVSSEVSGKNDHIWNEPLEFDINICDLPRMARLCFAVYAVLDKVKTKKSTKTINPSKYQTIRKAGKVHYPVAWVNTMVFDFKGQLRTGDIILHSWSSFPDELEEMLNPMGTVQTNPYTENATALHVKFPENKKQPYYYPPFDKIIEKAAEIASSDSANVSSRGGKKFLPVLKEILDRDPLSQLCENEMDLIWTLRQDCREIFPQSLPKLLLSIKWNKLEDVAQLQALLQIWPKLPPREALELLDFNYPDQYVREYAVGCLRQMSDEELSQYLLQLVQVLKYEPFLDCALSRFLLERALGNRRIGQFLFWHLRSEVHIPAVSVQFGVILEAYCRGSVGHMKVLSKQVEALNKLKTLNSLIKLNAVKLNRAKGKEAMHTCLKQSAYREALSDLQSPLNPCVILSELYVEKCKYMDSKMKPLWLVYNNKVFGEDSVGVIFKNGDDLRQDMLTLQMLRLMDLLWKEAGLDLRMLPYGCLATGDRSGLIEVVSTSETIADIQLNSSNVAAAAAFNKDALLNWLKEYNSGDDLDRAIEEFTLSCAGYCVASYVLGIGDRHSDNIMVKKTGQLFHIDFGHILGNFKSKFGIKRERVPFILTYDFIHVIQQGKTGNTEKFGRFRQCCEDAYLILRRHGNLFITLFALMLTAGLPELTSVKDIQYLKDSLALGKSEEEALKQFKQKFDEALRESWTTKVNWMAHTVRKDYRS
Chain of PI3K (p110β/p85α) (h) (P27986 whole entry partner): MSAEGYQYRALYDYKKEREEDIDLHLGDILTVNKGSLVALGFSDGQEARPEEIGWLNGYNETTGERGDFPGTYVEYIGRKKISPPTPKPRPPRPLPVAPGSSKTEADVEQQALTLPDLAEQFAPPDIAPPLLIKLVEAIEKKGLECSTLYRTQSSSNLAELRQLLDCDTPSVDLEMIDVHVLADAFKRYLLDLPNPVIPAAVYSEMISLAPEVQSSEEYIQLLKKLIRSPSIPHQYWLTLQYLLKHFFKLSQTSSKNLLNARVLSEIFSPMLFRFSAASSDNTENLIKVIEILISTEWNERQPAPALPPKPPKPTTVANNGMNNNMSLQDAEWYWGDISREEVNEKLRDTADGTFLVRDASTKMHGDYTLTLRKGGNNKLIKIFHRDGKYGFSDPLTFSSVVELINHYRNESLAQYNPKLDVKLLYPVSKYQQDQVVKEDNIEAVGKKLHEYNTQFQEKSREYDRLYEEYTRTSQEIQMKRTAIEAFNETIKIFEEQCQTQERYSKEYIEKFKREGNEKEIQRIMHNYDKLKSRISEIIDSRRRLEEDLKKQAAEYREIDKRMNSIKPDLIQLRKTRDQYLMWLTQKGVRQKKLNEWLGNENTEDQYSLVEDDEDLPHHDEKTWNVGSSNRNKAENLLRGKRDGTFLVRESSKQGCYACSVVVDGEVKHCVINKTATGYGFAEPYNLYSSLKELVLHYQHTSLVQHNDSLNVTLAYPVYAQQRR
Chain of PI3K (p110δ/p85α) (h) (O00329 whole entry): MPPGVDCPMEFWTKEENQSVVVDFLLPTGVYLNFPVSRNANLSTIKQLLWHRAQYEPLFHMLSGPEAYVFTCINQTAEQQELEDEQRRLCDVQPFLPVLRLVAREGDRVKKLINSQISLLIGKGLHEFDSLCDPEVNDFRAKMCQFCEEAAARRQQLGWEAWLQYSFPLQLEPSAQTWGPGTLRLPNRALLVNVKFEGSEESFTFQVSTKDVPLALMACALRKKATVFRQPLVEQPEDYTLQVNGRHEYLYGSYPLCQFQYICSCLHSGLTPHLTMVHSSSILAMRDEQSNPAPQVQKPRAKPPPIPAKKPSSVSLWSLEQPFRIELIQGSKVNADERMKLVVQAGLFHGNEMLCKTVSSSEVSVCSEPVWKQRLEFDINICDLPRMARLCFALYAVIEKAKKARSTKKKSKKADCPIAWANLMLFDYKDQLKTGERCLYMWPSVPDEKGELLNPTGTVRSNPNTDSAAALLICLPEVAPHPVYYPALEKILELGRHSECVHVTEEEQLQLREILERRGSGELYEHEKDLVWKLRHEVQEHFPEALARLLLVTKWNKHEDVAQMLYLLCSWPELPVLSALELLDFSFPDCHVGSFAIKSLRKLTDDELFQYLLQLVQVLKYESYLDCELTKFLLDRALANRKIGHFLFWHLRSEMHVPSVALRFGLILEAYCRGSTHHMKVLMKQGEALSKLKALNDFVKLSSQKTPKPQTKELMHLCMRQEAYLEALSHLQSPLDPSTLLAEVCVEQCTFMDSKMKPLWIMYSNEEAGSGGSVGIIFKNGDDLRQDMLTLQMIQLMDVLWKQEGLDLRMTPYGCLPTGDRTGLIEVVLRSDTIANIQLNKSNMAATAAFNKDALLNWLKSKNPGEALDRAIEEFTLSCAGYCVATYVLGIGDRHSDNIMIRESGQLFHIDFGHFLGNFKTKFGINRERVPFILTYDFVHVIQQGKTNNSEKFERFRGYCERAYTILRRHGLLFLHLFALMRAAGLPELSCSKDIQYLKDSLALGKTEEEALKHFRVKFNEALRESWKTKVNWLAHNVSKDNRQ
Chain of PI3K (p110δ/p85α) (h) (P27986 whole entry partner): as the sequence (P27986 whole entry partner) above
Chain of PI3K (p120γ) (h) (P48736 whole entry, the tested form may be a part): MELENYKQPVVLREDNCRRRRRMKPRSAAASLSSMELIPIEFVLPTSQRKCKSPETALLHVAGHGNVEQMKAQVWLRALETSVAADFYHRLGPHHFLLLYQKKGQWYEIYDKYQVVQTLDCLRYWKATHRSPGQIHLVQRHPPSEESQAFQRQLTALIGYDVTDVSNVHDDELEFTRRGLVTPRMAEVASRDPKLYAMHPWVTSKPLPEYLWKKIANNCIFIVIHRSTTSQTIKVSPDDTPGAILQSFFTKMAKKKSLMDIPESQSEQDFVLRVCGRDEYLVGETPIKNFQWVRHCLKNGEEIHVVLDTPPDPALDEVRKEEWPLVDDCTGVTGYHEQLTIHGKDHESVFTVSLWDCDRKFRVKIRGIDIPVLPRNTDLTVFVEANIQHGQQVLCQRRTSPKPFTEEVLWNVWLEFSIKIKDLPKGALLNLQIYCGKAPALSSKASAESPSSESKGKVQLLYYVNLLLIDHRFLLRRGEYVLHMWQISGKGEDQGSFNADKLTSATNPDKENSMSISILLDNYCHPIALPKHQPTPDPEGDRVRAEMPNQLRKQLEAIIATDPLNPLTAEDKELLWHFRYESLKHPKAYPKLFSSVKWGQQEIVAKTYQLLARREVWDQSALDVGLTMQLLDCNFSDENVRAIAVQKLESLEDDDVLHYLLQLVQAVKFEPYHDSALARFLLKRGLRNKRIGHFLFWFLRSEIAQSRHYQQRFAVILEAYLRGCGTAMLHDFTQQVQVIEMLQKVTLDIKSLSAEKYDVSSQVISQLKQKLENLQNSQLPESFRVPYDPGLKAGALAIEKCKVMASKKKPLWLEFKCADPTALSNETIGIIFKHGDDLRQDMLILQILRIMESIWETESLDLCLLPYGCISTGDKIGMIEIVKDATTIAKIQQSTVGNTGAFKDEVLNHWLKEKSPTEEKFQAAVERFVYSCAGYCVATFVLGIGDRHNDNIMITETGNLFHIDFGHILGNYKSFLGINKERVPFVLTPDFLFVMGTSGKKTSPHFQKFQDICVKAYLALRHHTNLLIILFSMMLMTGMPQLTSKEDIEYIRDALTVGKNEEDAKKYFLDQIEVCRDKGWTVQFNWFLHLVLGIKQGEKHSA
Chain of PI3K (p110α/p85α) (h) (P42336 whole entry): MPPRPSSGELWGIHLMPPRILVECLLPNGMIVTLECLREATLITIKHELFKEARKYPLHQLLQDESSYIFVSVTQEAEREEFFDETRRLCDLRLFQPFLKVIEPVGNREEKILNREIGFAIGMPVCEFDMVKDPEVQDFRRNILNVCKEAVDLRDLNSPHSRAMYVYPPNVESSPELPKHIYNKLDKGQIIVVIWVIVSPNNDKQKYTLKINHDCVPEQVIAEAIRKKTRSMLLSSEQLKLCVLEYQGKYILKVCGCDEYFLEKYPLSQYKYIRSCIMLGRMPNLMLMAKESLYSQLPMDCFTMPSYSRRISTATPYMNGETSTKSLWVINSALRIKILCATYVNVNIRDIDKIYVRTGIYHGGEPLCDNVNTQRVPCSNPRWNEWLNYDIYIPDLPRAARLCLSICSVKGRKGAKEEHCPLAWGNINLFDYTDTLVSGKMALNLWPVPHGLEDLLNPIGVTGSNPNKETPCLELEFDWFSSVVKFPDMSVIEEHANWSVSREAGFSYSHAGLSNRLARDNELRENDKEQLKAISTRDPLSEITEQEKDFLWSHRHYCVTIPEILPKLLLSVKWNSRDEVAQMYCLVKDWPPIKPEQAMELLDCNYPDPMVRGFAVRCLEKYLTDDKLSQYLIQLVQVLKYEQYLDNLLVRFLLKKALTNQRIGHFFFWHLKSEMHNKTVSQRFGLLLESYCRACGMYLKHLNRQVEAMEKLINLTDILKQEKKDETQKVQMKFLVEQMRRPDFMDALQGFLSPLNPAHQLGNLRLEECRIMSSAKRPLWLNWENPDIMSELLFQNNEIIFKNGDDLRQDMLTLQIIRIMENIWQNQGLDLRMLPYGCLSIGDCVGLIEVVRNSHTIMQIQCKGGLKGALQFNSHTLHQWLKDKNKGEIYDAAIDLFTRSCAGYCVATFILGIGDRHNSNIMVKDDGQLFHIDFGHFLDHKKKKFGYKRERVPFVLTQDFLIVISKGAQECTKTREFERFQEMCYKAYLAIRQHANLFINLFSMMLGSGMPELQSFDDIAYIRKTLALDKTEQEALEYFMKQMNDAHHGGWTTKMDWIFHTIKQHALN
Chain of PI3K (p110α/p85α) (h) (P27986 whole entry partner): as the sequence (P27986 whole entry partner) above

| SMILES | IC50 [4] | CLint scaled at 5 μM [5] | half-life at 5 μM [5] | IC50 [6] | IC50 [7] | CLint scaled at 5 μM [8] | half-life at 5 μM [8] | IC50 [9] | IC50 [10] | IC50 [11] | IC50 [12] | IC50 [13] | efficacy in a mouse model of rheumatoid arthritis [1] | effect on onset of disease in a model of systemic lupus erythematosis [2] | clinical response [3] | IC50 [14] |
| --- | --- | --- | --- | --- | --- | --- | --- | --- | --- | --- | --- | --- | --- | --- | --- | --- |
| O=C1NC(=O)/C(=C\c2ccc3nccnc3c2)S1 [AS 605240] | – | – | – | – | – | – | – | – | – | – | – | – | efficacious | delay onset of disease | – | – |
| CC[C@H](Nc1ncnc2[nH]cnc12)c1nc2cccc(F)c2c(=O)n1-c1ccccc1 [CAL-101, idelalisib] | – | – | – | – | – | – | – | – | – | – | – | – | – | – | dramatic and durable responses | – |
| Cc1noc(-c2c(N)ncnc2N[C@@H](C)c2nc3cccc(C#CC(C)O)c3c(=O)n2-c2ccccc2)n1 (stereo partly drawn) [Example 5, 2-((S)-1-((6-amino-5-(3-meth-1,2,4-oxadiazol-5-1)pyrimidin-4-1)amino)ethyl)-5-(3-hydroxybut-1-yn-1-yl)-3-phenylquinazolin-4(3H)-one] | 512 nM | 20.8 mL/min/kg | 83.7 min | 1870 nM | 2400 nM | 28 mL/min/kg | 88.7 min | 17 nM | – | – | – | – | – | – | – | – |
| CC[C@H](Nc1ncnc(N)c1-c1nc(C)no1)c1nc2cccc(C#CCO)c2c(=O)n1-c1ccccc1 [Example 36, (S)-2-(1-((6-amino-5-(3-methyl-1,2,4-oxadiazol-5-yl)pyrimidin-4-yl)amino)propyl)-5-(3-hydroxyprop-1-yn-1-yl)-3-phenylquinazolin-4(3H)-one] | 30 nM | 98.3 mL/min/kg | 17.7 min | 395 nM | 2660 nM | 138 mL/min/kg | 18 min | 10 nM | – | – | – | – | – | – | – | – |

More lines, in order of falling IC50 [4], values ahead:

| IC50 [4] | CLint scaled at 5 μM [5] | half-life at 5 μM [5] | IC50 [6] | IC50 [7] | CLint scaled at 5 μM [8] | half-life at 5 μM [8] | IC50 [9] | IC50 [10] | IC50 [11] | IC50 [12] | IC50 [13] | SMILES | efficacy in a mouse model of rheumatoid arthritis [1] | effect on onset of disease in a model of systemic lupus erythematosis [2] | clinical response [3] | IC50 [14] |
| --- | --- | --- | --- | --- | --- | --- | --- | --- | --- | --- | --- | --- | --- | --- | --- | --- |
| 440 nM | 39.8 mL/min/kg | 43.7 min | > 3000 nM | > 3000 nM | 113 mL/min/kg | 22 min | 45 nM | – | – | – | – | CC[C@H](Nc1ncnc(N)c1-c1nnc(C)o1)c1nc2cccc(C#CCO)c2c(=O)n1-c1ccccc1 [Example 37, (S)-2-(1-((6-amino-5-(5-methyl-1,3,4-oxadiazol-2-yl)pyrimidin-4-yl)amino)propyl)-5-(3-hydroxyprop-1-yn-1-yl)-3-phenylquinazolin-4(3H)-one] | – | – | – | – |
| 349 nM | – | – | 1600 nM | > 3000 nM | – | – | 17 nM | – | – | – | – | Cc1noc(-c2c(N)ncnc2N[C@@H](C)c2nc3ccc(F)c(C#CCO)c3c(=O)n2-c2ccccc2)n1 [Example 42, (S)-2-(1-((6-amino-5-(3-methyl-1,2,4-oxadiazol-5-yl)pyrimidin-4-yl)amino)ethyl)-6-fluoro-5-(3-hydroxyprop-1-yn-1-yl)-3-phenylquinazolin-4(3H)-one] | – | – | – | – |
| 77 nM | 72.2 mL/min/kg | 24.1 min | 119 nM | > 3000 nM | 88.8 mL/min/kg | 28 min | 24 nM | – | – | – | – | CC[C@H](Nc1ncnc(N)c1-c1nc(C)no1)c1nc2cccc(C#CCO)c2c(=O)n1C1CC1 [Example 29, (S)-2-(1-((6-amino-5-(3-methyl-1,2,4-oxadiazol-5-yl)pyrimidin-4-yl)amino)propyl)-3-cyclopropyl-5-(3-hydroxyprop-1-yn-1-yl)quinazolin-4(3H)-one] | – | – | – | – |
| 47 nM | 80.5 mL/min/kg | 21.6 min | 151 nM | 460 nM | 85.2 mL/min/kg | 29.2 min | 2 nM | – | – | – | – | CC#Cc1cccc2nc([C@H](C)Nc3ncnc(N)c3-c3nc(C)no3)n(-c3ccccc3)c(=O)c12 [Example 9, (S)-2-(1-((6-amino-5-(3-methyl-1,2,4-oxadiazol-5-yl)pyrimidin-4-yl)amino)ethyl)-3-phenyl-5-(prop-1-yn-1-yl)quinazolin-4(3H)-one] | – | – | – | – |
| 26 nM | – | – | 61 nM | 121 nM | – | – | 10 nM | 305 nM | 34.4 nM | 0.52 nM | 22.6 nM | CC#Cc1cccc2cc([C@H](C)Nc3ncnc(N)c3-c3nc(C)no3)n(-c3ccccc3)c(=O)c12 [Example 16, (S)-3-(1-((6-amino-5-(3-methyl-1,2,4-oxadiazol-5-yl)pyrimidin-4-yl)amino)ethyl)-2-phenyl-8-(prop-1-yn-1-yl)isoquinolin-1(2H)-one] | – | – | – | > 30000 nM |
| 15 nM | 150 mL/min/kg | 11.6 min | 582 nM | 1890 nM | 213 mL/min/kg | 11.7 min | 8 nM | – | – | – | – | CC#Cc1cccc2nc([C@H](CC)Nc3ncnc(N)c3-c3nc(C)no3)n(-c3ccccc3)c(=O)c12 [Example 14, (S)-2-(1-((6-amino-5-(3-methyl-1,2,4-oxadiazol-5-yl)pyrimidin-4-yl)amino)propyl)-3-phenyl-5-(prop-1-yn-1-yl)quinazolin-4(3H)-one] | – | – | – | – |
